Measurements: publication PMC6934184, “Selective DNA-PKcs inhibition extends the therapeutic index of localized radiotherapy and chemotherapy” (The Journal of Clinical Investigation, 2019)

Target: T1, MAP3K14 (NIK) (Homo sapiens, UniProt Q99558)
T1 construct: purchased Thermo Fisher Scientific (Life Technologies) SelectScreen
Test: SelectScreen LanthaScreen
Type: binding
Conditions: read-out: % displacement
Procedure, shortened: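 Percent values come from Thermo SelectScreen profiling of NU5455, combining activity and binding assays. CSF1R was run in Z'LYTE format at Km app ATP, and CAMK1 in Adapta format with ATP listed at 10.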

T1 sequence (Q99558 whole entry): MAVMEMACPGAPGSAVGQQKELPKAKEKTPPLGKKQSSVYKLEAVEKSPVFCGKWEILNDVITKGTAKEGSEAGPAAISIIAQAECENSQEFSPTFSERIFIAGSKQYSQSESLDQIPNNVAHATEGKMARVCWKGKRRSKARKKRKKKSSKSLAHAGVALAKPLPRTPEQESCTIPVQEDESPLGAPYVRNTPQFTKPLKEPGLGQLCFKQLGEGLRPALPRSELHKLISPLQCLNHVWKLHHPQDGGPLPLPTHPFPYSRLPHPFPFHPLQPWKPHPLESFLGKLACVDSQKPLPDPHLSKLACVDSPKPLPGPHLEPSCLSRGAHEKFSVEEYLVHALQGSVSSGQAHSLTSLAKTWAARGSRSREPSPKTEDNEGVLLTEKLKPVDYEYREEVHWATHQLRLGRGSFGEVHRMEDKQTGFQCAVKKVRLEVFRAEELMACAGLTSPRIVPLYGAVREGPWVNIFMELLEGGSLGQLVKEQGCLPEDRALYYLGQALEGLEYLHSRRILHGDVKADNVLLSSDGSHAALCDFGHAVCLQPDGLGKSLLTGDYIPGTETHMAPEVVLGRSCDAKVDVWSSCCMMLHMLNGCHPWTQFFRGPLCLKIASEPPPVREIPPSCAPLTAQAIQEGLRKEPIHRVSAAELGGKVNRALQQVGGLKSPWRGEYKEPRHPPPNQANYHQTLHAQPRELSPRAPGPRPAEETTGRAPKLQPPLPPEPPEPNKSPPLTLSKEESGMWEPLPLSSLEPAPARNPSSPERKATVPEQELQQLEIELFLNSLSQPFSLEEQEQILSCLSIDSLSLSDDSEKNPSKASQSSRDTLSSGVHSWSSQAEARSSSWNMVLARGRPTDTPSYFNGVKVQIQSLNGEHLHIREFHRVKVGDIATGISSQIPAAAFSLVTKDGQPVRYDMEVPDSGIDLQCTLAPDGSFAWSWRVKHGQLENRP

Question: Which inhibition at 1 µM does the source give for CN(C(=O)CN1CCOCC1)c1ccc2sc3c(-c4cccc5c(=O)cc(N6CC7CCC(C6)O7)oc45)cccc3c2c1 [NU5455] here?
Answer: -0.5%
